Where a name gives a salt, the structure may show the parent alone. Read-outs that look alike come from different tables or passages of the source.
Tests used:
Assay type in all cases: cell-based
MYB mRNA = experiment: Splicing RT-qPCR assay, MYB canonical (CJ) and alternative (AJ) junction mRNA; conditions: Homo sapiens; for EC50: AC50 = 50% response in AJ mRNA increase
Experimental: (§1) Compounds described herein were used to modulate RNA transcript abundance in cells. The expression of a target mRNA was measured by detecting the formation of an exon-exon junction in the canonical transcript (CJ). A compound mediated exon-inclusion event was detected by observing an increase in formation of a new junction with an alternative exon (AJ). Real-time qPCR assays were used to detect these splicing switches and interrogate the potency of various compounds towards different target genes. A high-throughput real time quantitative PCR (RT-qPCR) assay was developed to measure these two isoforms of the mRNA (CJ and AJ) for exemplary genes, such as HTT, SMN2, and MYB, together with a control housekeeping gene, GAPDH or GUSB or PPIA, used for normalization. Briefly, the A673 or K562 cell line was treated with various compounds described herein (e.g., compounds of Formula (I)). After treatment, the levels of the HTT, MYB, or SMN2 mRNA targets were determined from each sample of cell lysate by cDNA synthesis followed by qPCR.
(§2) The A673 cell line was cultured in DMEM with 10% FBS. Cells were diluted with full growth media and plated in a 96-well plate (15,000 cells in 100 ul media per well). The plate was incubated at 37° C. with 5% CO2 for 24 hours to allow cells to adhere. An 11-point 3-fold serial dilution of the compounds was made in DMSO then diluted in media in an intermediate plate. Compounds were transferred from the intermediate plate to the cell plate with the top dose at a final concentration of 10 uM in the well. Final DMSO concentration was kept at or below 0.25%. The cell plate was returned to the incubator at 37° C. with 5% CO2 for an additional 24 hours.
(§3) The K562 cell line was cultured in IMDM with 10% FBS. For K562, cells were diluted with full growth media and plated in either a 96-well plate (50,000 cells in 50 uL media per well) or a 384-well plate (8,000-40,000 cells in 45 uL media per well). An 11-point 3-fold serial dilution of the compounds were made in DMSO then diluted in media in an intermediate plate. Compound was transferred from the intermediate plate to the cell plate with the top dose at a final concentration of 10 uM in the well. Final DMSO concentration was kept at or below 0.25%. Final volume was 100 uL for 96-well plate and 50 uL for 384-well plate. The cell plate was then placed in an incubator at 37° C. with 5% CO2 for 24 hours.
(§4) The cells were then gently washed with 50 uL-100 uL cold PBS before proceeding to addition of lysis buffer. 30 uL-50 uL of room temperature lysis buffer with DNAse I (and optionally RNAsin) was added to each well. Cells were shaken/mixed thoroughly at room temperature for 5-10 minutes for lysis to take place and then 3 uL-5 uL of room temperature stop solution was added and wells were shaken/mixed again. After 2-5 minutes, the cell lysate plate was transferred to ice for RT-qPCR reaction setup. The lysates could also be frozen at-80° C. for later use.
(§5) In some cases, a direct lysis buffer was used. An appropriate volume of 3× lysis buffer (10 mM Tris, 150 mM NaCl, 1.5%-2.5% Igepal and 0.1-1 U/uL RNAsin, pH 7.4) was directly added to either K562 or A673 cells in media and mixed by pipetting 3 times. The plates were then incubated at room temperature with shaking/rocking for 20-50 minutes to allow for lysis to take place. After this time, the cell lysate plate was transferred to ice to set up for the RT-qPCR reactions. The lysates could also be frozen at −80° C. for later use.
(§6) To set up 10 uL RT-qPCR reactions, cell lysates were transferred to 384-well qPCR plates containing the master mix according to the table below. The plates were sealed, gently vortexed, and spun down before the run. The volumes were adjusted accordingly in some instances where the reaction was carried in 20 μL. The table below summarizes the components of the RT-qPCR reactions:
(§7) The RT-qPCR reaction was performed using a QuantStudio (ThermoFisher) under the following fast cycling conditions. […]

Target C mRNA = experiment: Splicing RT-qPCR gene panel, Target C canonical junction (CJ) mRNA; conditions: Homo sapiens; Table 8; larger gene panel, decrease in CJ mRNA levels
Experimental: as §1, §2, §3, §4, §5, §6, §7

HTT mRNA = experiment: Splicing RT-qPCR assay, HTT canonical (CJ) and alternative (AJ) junction mRNA; conditions: Homo sapiens; for EC50: AC50 = 50% response in AJ mRNA increase
Experimental: as §1, §2, §3, §4, §5, §6, §7

SMN2 mRNA = experiment: Splicing RT-qPCR gene panel, SMN2 canonical junction (CJ) mRNA; conditions: Homo sapiens; Table 8; larger gene panel, decrease in CJ mRNA levels
Experimental: as §1, §2, §3, §4, §5, §6, §7

[1] = Table 7, RT-qPCR, A673 or K562 cells, 24 hours treatment
[2] = Table 7, IC50 = 50% response in CJ mRNA decrease, RT-qPCR, A673 or K562 cells, 24 hours treatment, read-out: MYB CJ
[3] = Table 8, larger gene panel, decrease in CJ mRNA levels, read-out: MYB CJ IC50
[4] = Table 7, IC50 = 50% response in CJ mRNA decrease, RT-qPCR, A673 or K562 cells, 24 hours treatment, read-out: HTT CJ
[5] = Table 8, larger gene panel, decrease in CJ mRNA levels, read-out: HTT CJ IC50

Row | SMILES | EC50 (MYB mRNA; [1]) | IC50 (MYB mRNA; [2]) | IC50 (MYB mRNA; [3]) | IC50 (Target C mRNA) | EC50 (HTT mRNA; [1]) | IC50 (HTT mRNA; [4]) | IC50 (HTT mRNA; [5]) | IC50 (SMN2 mRNA)
1 | Cn1cc2ccc(-c3nc4sc(C5CCNCC5)cc4s3)cc2n1 [Compound 127, 2-methyl-6-[5-(piperidin-4-yl)thieno [2,3-d][1,3]thiazol-2-yl]indazole hydrochloride] | 1 to 10 µM | 1 to 10 µM | 1 to 10 µM | 1 to 10 µM | 1 to 10 µM | 1 to 10 µM | 1 to 10 µM | 1 to 10 µM
2 | CC1CN(c2cc3sc(-c4cc(F)c5nn(C)cc5c4)nc3s2)CCN1C (centres unmarked) [Compound 128, 5-[5-(3,4-dimethylpiperazin-1-yl)thieno[2,3-d][1,3]thiazol-2-yl]-7-fluoro-2-methylindazole] | 1 to 10 µM | 1 to 10 µM | 1 to 10 µM | 1 to 10 µM | 1 to 10 µM | 1 to 10 µM | 1 to 10 µM | 0.1 to 1 µM
3 | Cc1cn2cc(-c3nc4sc(C5CCNCC5)cc4s3)cc(F)c2n1 [Compound 130, 4-(2-[8-fluoro-2-methylimidazo[1,2-a]pyridin-6-yl]thieno[2,3-d][1,3]thiazol-5-yl)piperidine hydrochloride] | < 0.1 µM | < 0.1 µM | < 0.1 µM | < 0.1 µM | < 0.1 µM | < 0.1 µM | < 0.1 µM | < 0.1 µM
4 | Cn1cc2c(F)cc(-c3nc4sc(C5CCNCC5)cc4s3)cc2n1 [Compound 131, 4-fluoro-2-methyl-6-[5-(piperidin-4-yl)thieno[2,3-d][1,3]thiazol-2-yl]indazole] | 1 to 10 µM | 1 to 10 µM | 1 to 10 µM | 1 to 10 µM | 1 to 10 µM | 1 to 10 µM | 1 to 10 µM | 1 to 10 µM
5 | Cc1nc2c(F)cc(-c3nc4sc(C5CCNCC5)cc4s3)cc2o1 [Compound 132, 4-fluoro-2-methyl-6-[5-(piperidin-4-yl)thieno[2,3-d][1,3]thiazol-2-yl]-1,3-benzoxazole] | 0.1 to 1 µM | 0.1 to 1 µM | 0.1 to 1 µM | 0.1 to 1 µM | < 0.1 µM | 0.1 to 1 µM | < 0.1 µM | 0.1 to 1 µM
6 | Cc1cn2nc(-c3nc4sc(C5CCNCC5)cc4s3)cc2c(C)n1 [Compound 133, 4-(2-[4,6-dimethylpyrazolo[1,5-a]pyrazin-2-yl]thieno[2,3-d][1,3]thiazol-5-yl)piperidine] | 0.1 to 1 µM | 0.1 to 1 µM | 0.1 to 1 µM | 0.1 to 1 µM | 0.1 to 1 µM | 0.1 to 1 µM | 0.1 to 1 µM | 0.1 to 1 µM
7 | Cn1cc2cc(-c3nc4sc(N5CCNCC5)cc4s3)cc(F)c2n1 [Compound 134, 7-fluoro-2-methyl-5-[5-(piperazin-1-yl)thieno[2,3-d][1,3]thiazol-2-yl]indazole] | 0.1 to 1 µM | 0.1 to 1 µM | 0.1 to 1 µM | 0.1 to 1 µM | < 0.1 µM | 0.1 to 1 µM | < 0.1 µM | < 0.1 µM
8 | CC1CN(c2cc3sc(-c4cc(F)c5nn(C)cc5c4)nc3s2)CCN1 (centres unmarked) [Compound 135, 7-fluoro-2-methyl-5-[5-(3-methylpiperazin-1-yl)thieno[2,3-d][1,3]thiazol-2-yl]indazole] | 0.1 to 1 µM | 0.1 to 1 µM | 0.1 to 1 µM | 0.1 to 1 µM | 0.1 to 1 µM | 0.1 to 1 µM | 0.1 to 1 µM | < 0.1 µM
9 | Cn1cc2cc(-c3nc4sc(N5CCNC6(CC6)C5)cc4s3)cc(F)c2n1 [Compound 136, 5-(5-[4,7-diazaspiro[2.5]octan-7-yl]thieno[2,3-d][1,3]thiazol-2-yl)-7-fluoro-2-methylindazole] | 0.1 to 1 µM | 1 to 10 µM | 0.1 to 1 µM | > 10 µM | > 10 µM | > 10 µM | > 10 µM | 0.1 to 1 µM
10 | CCNC1CCN(c2cc3sc(-c4cc(F)c5nn(C)cc5c4)nc3s2)CC1 [Compound 137, N-ethyl-1-[2-(7-fluoro-2-methylindazol-5-yl)thieno[2,3-d][1,3]thiazol-5-yl]piperidin-4-amine] | 0.1 to 1 µM | 0.1 to 1 µM | 0.1 to 1 µM | 0.1 to 1 µM | 0.1 to 1 µM | 0.1 to 1 µM | 0.1 to 1 µM | < 0.1 µM
11 | Cc1cn2cc(-c3nc4sc(C5CCNCC5)cc4s3)cc(Cl)c2n1 [Compound 139] | < 0.1 µM | < 0.1 µM | < 0.1 µM | < 0.1 µM | < 0.1 µM | < 0.1 µM | < 0.1 µM | < 0.1 µM
12 | Cc1cn2cc(-c3nc4sc(C5CCNCC5)cc4s3)cc(C)c2n1 [Compound 140, 4-(2-[2,8-dimethylimidazo[1,2-a]pyridin-6-yl]thieno[2,3-d][1,3]thiazol-5-yl)piperidine hydrochloride] | 0.1 to 1 µM | 0.1 to 1 µM | 0.1 to 1 µM | 0.1 to 1 µM | < 0.1 µM | < 0.1 µM | < 0.1 µM | < 0.1 µM
13 | CN1CCN(c2cc3sc(-c4cc(F)c5nn(C)cc5c4)nc3s2)CC1 [Compound 141, 7-fluoro-2-methyl-5-[5-(4-methylpiperazin-1-yl)thieno[2,3-d][1,3]thiazol-2-yl]indazole] | 0.1 to 1 µM | 0.1 to 1 µM | 0.1 to 1 µM | 1 to 10 µM | 0.1 to 1 µM | 0.1 to 1 µM | 0.1 to 1 µM | < 0.1 µM

Reference: patent publication US20250109140A1, “5-[5-(PIPERIDIN-4-YL)THIENO[3,2-C]PYRAZOL-2-YL]INDAZOLE DERIVATIVES AND RELATED COMPOUNDS AS MODULATORS FOR SPLICING NUCLEIC ACIDS AND FOR THE TREATMENT OF PROLIFERATIVE DISEASES” (REMIX THERAPUTICS INC., priority 2022, published 2025)
